Assay results published in US20240218385A1, “NEGATIVE-STRAND RNA VIRAL VECTOR AND PLANT GENOME EDITING METHOD WITHOUT TRANSFORMATION” (ZHEJIANG UNIVERSITY, priority 2021, published 2024).

Assays:
Type in all cases: cell-based
[1] = test system: PDS gene crPDS1 target site; experiment: Mutation genotypes at the crPDS1 target in regenerated N. benthamiana plants after antiviral treatment (HTS); settings: for proportion of M0 plants with mutations at the target site: ribavirin 40 mg/L, favipiravir 40 mg/L, remdesivir 1.2 mg/L
Text: Plant regeneration through culturing the leaf tissues infected with the TSWV vectors are usually ineffective in eliminating the virus. The embodiment investigated the effect of antiviral treatment during plant regeneration on virus clearance using leaf tissues infected with the TSWV-Cas12a-crRNA vector targeting the N. benthamiana crPDS1 site. […] After 35 days of culturing, explants together with induced callus were transferred to an induction medium without antiviral agents until day 55, and then the regenerated seedlings were transferred to a rooting medium. Three independent biological replicates were included in each group, and 30 plants were randomly selected in each biological replicate of each group for subsequent analysis. Total RNA was extracted from M0 regenerated seedlings, and RT-PCR was conducted using the TSWV N specific primers N/F ([…]; SEQ ID NO: 131) and N/R ([…]; SEQ ID NO: 132) to examine the virus clearance rate. The primers Nb/actin/F ([…]; SEQ ID NO: 133) and Nb/actin/R ([…]; SEQ ID NO: 134) for amplification of the NbActin cDNA served as an internal control. […] In contrast, the mock treatment had only 4.4% of virus-free regenerated plants.
To further evaluate the effect of drug treatment on the efficiency of gene editing in the regenerated plants, DNA sequences containing the target loci were PCR amplified using specific primers (SEQ ID NO: 70 and 71), and the resulting amplicons were high-throughput sequenced. The mutation type of each plant was analyzed, and the editing efficiency of each group was calculated. We used the following definitions to call the putative genotype: wild-type (WT) with editing efficiency (indels %) of 0-10.0%; chimeric (Chi) with 10%<indels %≤35.0%; heterozygous (He) with 35.0%<indels %≤80.0%, i.e., one allele is edited at the target site but the other allele is wild-type; homozygous (Ho) with indels % between 80.0% and 100.0% if both alleles have the same type of editing, and biallelic (Bi) if two alleles produced two different types of editing.

[2] = test system: PDS genes crPDS1 target sites; experiment: Target mutations in regenerated tobacco plants after antiviral treatment (HTS)
Text: (§1) This embodiment further investigates the impact of antiviral drug treatment on virus clearance and mutant plant recovery using tobacco leaf tissues infected with the TSWV vectors for tissue culture and regeneration. We used the recombinant TSWV-Cas12a-crRNA vector described in Example 24 as an example, which targets the crPDS1 target sites of both PDS genes in tobacco. The systemic leaves infected with this virus vector were used as explants for tissue culture and plant regeneration, following the same experimental protocol as described in Example 24.
(§2) The distribution of mutant genotypes in the regenerated plants from each drug treatment group was further analyzed.

TSWV [3] = experiment: TSWV clearance from regenerated tobacco plants by antiviral treatment
Text: as §1, §2

TSWV [4] = experiment: TSWV clearance from regenerated N. benthamiana plants by antiviral treatment during tissue culture (RT-PCR with N-specific primers); settings: 40 mg/L in medium; explants infected with TSWV-Cas12a-crRNA targeting crPDS1

Row | Compound | total editing efficiency compared to the mock group ([1]; M0 plants) | proportion of Ho/Bi types compared to the mock group ([1]; M0 plants, PDSa and PDSb) | proportion of M0 plants with mutations at the target site ([1]; PDSa and PDSb) | proportion of mutation types in regenerated plants [2] | percentage of regenerated plants carrying target mutations ([2]; HTS) | plants with tetra-allelic mutations at the crPDS1 target site ([1]; 40 mg/L ribavirin in medium) [%] | proportion of Chi types compared to the mock group ([1]; M0 plants, PDSa and PDSb) | presence of viral vectors in the regenerated plants (TSWV [3]) | TSWV clearance rate (regenerated plants free of virus) (TSWV [4]) [%]
1 | NC(=O)c1nc(F)c[nH]c1=O [favipiravir] | lower than that of the mock group | significantly higher than that of the mock group | lowest mutation rates | – | – | – | – | – | –
2 | NC(=O)c1ncn([C@@H]2O[C@H](CO)[C@@H](O)[C@H]2O)n1 [ribavirin] | – | increased in both homoeologs | highest proportion of plants with mutations | increased the proportion of various mutation types | significantly higher than that in the control treatment and other drug treatment groups | 28.9 | decreased | effectively cleared the virus from all of the regenerated plants | 100
